Experimental findings from PMC13252604, “First Generation Proteolysis Targeting Chimeras (PROTACs) for the Treatment of Progeria” (Advanced Science, 2026) are described below.

Each structure is given as a SMILES string. Values after ≈ are worked out from the molar mass of the structure shown.

The test system of series [1] is phosphorylated histone 2AX (pH2AX). Description: pH2AX immunoblot in mouse progeroid cells. The class given is cell-based. Particulars: Lmna^G609G/G609G fibroblasts, 5 µM, relative to GAPDH. The procedure:
Confocal fluorescence microscopy images are representative of 2 independent experiments. […] Representative cropped immunoblots are shown. […] MW, molecular weight (in kDa) markers. (C) PROTAC 2 decreases senescence‐associated β‐galactosidase (SA‐βgal) activity, interleukin (IL) 1α and p16 senescent markers. Lmna^G609G/G609G (G609G) or Lmna^+/+ (WT) fibroblasts were incubated with vehicle or compound 2 (5 µM). […] Data were analysed using one‐way ANOVA followed by Dunnett's post–hoc test. ^*, p < 0.05; ^**, p < 0.01, ^***, p < 0.001, ^****, p < 0.0001 vs G609G cells. […]
compound exposure. […] Samples were analysed by electrophoresis in polyacrylamide gels (All Kd SDS-PAGE, BioRad) and the proteins transferred to nitrocellulose membranes (GE Healthcare, Amersham). […]
GAPDH (Cell Signaling, 2118S, 1:5000) and anti-actin (Santa Cruz Biotechnology, sc-376248, 1:500) as antibodies for loading control. […] The bands were quantified by densitometry using the […]
Quantification of different proteins intensity was performed using ImageJ (NIH) except for nuclear rim progerin intensity with Cell Profiler (Broad Institute). […]
SA β-galactosidase activity was determined by the FDG method. […]
Background: Immunoblotting shows a protein as a band on a membrane.

The nature of series [2]: Solubility in phosphate buffer solution. The format is physicochemical. Particulars: aqueous buffer; phosphate buffer solution (PBS, pH = 7.5).
Series [3] concerns HGADFN167 Lmna^G608G/G608G fibroblasts. Put plainly: Immunoblot and immunocytofluorescence analysis in human progeroid cells (Ki‐67, nuclei, pH2AX, H3K9Me3). Particulars: HGADFN167, 5 µM, 20 days. The class given is cell-based. The text has this: FIGURE 6 (A) Representative cropped immunoblots and progerin quantification in human Lmna^G608G/G608G fibroblasts. MW, molecular weight (in kDa) markers. […] (B) PROTAC 2 increases cell proliferation (upper panels) and decreases the number of misshapen nuclei (lower panels). White arrows highlight selected misshapen nuclei. (C) PROTAC 2 decreases senescence‐associated β‐galactosidase (SA‐βgal) activity, interleukin (IL) 6, p16 and p21 senescent markers. Bar graphs show mean±sem of 2 (SA‐βgal and p21) or 3 (IL‐6 and p16) independent experiments performed in triplicate. (D) PROTAC 2 decreases phosphorylated histone 2AX (pH2AX) and increases trimethylated histone 3 (H3K9Me3) levels. (E) PROTAC 2 increases the oxygen consumption rate (OCR), ATP production and the number of healthy mitochondria in human progeroid cells. Bar graphs show mean±sem of 2 independent experiments performed in duplicate. In all cases, HGADFN167 Lmna^G608G/G608G (G608G) or HGFDFN168 Lmna^+/+ (WT) fibroblasts, provided by the Progeria Research Foundation, were incubated with vehicle or 2 (5 µM) for 20 days. Data were analysed using one‐way ANOVA followed by Dunnett's post–hoc test vs vehicle (panel A) or vs G608G cells (panels B‐E). ^*, p < 0.05; ^**, p < 0.01; ^***, p < 0.001; ^****, p < 0.0001. Microscopy images are representative of 2 independent experiments and corresponding bar graphs show mean±sem of 4 fields from 2 independent experiments. […]
compound exposure. Then, cells were incubated with compound of interest or DMSO for the appropriate time and lysed with cold laemmli buffer (50 mM Tris-HCl pH 7.4, 150 mM NaCl, 1% Igepal) with a mixture of protease and phosphatase inhibitors (1 mM PMSF, 10 mM NaF, 0.3 mg/mL CalyculinA, 1 mM sodium orthovanadate, 10 mM β-glycerol-phosphate; all from Sigma-Aldrich and complete protease inhibitor cocktail, from Roche). Proteins were denatured at 95 ᵒC for 5 min and the lysates were immediately used or stored at -20 ᵒC until use. Samples were analysed by electrophoresis in polyacrylamide gels (All Kd SDS-PAGE, BioRad) and the proteins transferred to nitrocellulose membranes (GE Healthcare, Amersham). After 1 h of incubation in blocking buffer [20 mM Tris pH 7.6, 150 mM NaCl and 0.1% Tween-20 (TBS-T) with 5% of bovine serum albumin (BSA)], blots were incubated overnight at 4 ᵒC with the corresponding primary antibody: anti-phospho-histone 2AX (Ser139) (EMD Millipore, […]
GAPDH (Cell Signaling, 2118S, 1:5000) and anti-actin (Santa Cruz Biotechnology, sc-376248, 1:500) as antibodies for loading control. Then, membranes were washed (3x10 min) with TBS-T and incubated with the corresponding secondary antibody conjugated with peroxidase (Sigma- Aldrich) for 1 h at rt. […] The bands were quantified by densitometry using the […]

As for `CC1(C)Oc2cc3oc(=O)ccc3cc2C[C@@H]1OC(=O)CCCCCNc1cccc2c1C(=O)N(C1CCC(=O)NC1=O)C2=O` (stereo partly drawn) [compound 2], the “levels of phosphorylated histone 2AX (pH2AX)” value in series [1] is given as “reduces the levels of phosphorylated histone 2AX”. Also, the solubility (commonly the dissolved amount per volume that the medium holds) in series [2] is 0.5 µM (≈ 0.308 µg/mL). In series [3], the H3K9Me3 levels result is “significantly increased H3K9Me3 levels”, the “cell proliferation (Ki‐67 expression)” value is listed as “enhances cell proliferation”, the “number of misshapen nuclei” value was “significantly reduced the number of misshapen nuclei” and the pH2AX levels entry is on record as “reduced pH2AX levels to those observed in WT cells”.
